Results on 13 compounds are retold here after patent US7223759B2, “Antibacterial 3,5-diaminopiperidine-substituted aromatic and heteroaromatic compounds” (Anadys Pharmaceuticals, Inc., priority 2003, dated 2007).

One assay concerns Escherichia coli (ATCC25922) or Staphylococcus aureus (ATCC25923). The assay can be described thus: Antibacterial MIC, microdilution method in Mueller-Hinton medium. Conditions: Escherichia coli, 18 h, MIC in E. coli or S. aureus; two-fold serial dilutions 64 to 0.5 μg/ml in duplicate; 18 hours of incubation at 35° C.; read-out: Potency (MIC). It counts as cell-based. The method, boiled down: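 Two-fold serial dilutions from 64 to 0.5 μg/ml, in duplicate, by broth microdilution in Mueller-Hinton medium (NCCLS M7-A5). MIC taken as the lowest concentration preventing visible growth after 18 h at 35° C.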
(Dilution methods test growth across graded concentrations, often in twofold steps.)
With `CC(=O)Nc1ccc(Nc2nc(N3C[C@H](N)C[C@H](N)C3)nc(N3C[C@H](N)C[C@H](N)C3)n2)cc1` [drawing 178, N-(4-acetylamino-phenyl)-4,6-Bis-((3R,5S)-3,5-diamino-piperidin-1-yl)-[1,3,5]triazine-2-amine], the minimum inhibitory concentration (MIC) was > 64 µg/mL. Same read-out and setting: to `Cc1ccc(C(=O)Nc2ccc(Nc3nc(N4CCCCC4)nc(N4CCCC4)n3)cc2O)cc1.Cl` [drawing 244, N-{4-[4-((3R,5S)-3,5-Diamino-piperidin-1-yl)-6-((3R,4S)-3,4-dihydrooxy-pyrrolidin-1-yl)-[1,3,5]triazin-2-ylamino]-2-hydroxy-phenyl}-4-methyl-benzamide] belongs > 64 µg/mL.

Still in this assay, the particulars now being: Escherichia coli, 18 h, read-out: Potency (MIC).
Consider `N[C@@H]1C[C@H](N)CN(c2nc(Nc3ccc(C(=O)NCc4ccc5c(c4)OCO5)c(O)c3)nc(N3C[C@H](N)C[C@H](N)C3)n2)C1` [N-{4-[(benzo[1,3]dioxol-5-ylmethyl)-carbamoyl]-3-hydroxy-phenyl}-4,6-Bis-((3R,5S)-3,5-diamino-piperidin-1-yl)-[1,3,5]triazine-2-amine], for which the MIC was < 64 µg/mL. In the case of `Cc1ccc(S(=O)(=O)N(Cc2ccccc2)c2ccc(Nc3nc(N4C[C@H](N)C[C@H](N)C4)nc(N4C[C@H](N)C[C@H](N)C4)n3)cc2O)cc1` [N-{4-[benzyl-(toluene-4-sulfonyl)-amino]-3-hydroxy-phenyl}-4,6-Bis-((3R,5S)-3,5-diamino-piperidin-1-yl)-[1,3,5]triazine-2-amine], the MIC is < 16 µg/mL. Still for that read-out and setting: to `CC(=O)Nc1ccc(Nc2nc(N3C[C@H](N)C[C@H](N)C3)nc(N3C[C@H](N)C[C@H](N)C3)n2)cc1` [drawing 485, N-(4-acetylamino-phenyl)-4,6-Bis-((3R,5S)-3,5-diamino-piperidin-1-yl)-[1,3,5]triazine-2-amine] belongs < 64 µg/mL.

Staying with this assay, now noted: MIC in E. coli or S. aureus; two-fold serial dilutions 64 to 0.5 μg/ml in duplicate; 18 hours of incubation at 35° C.
With `Cl.O=C(Oc1ccccc1)c1ccc(Nc2nc(N3CCCCC3)nc(N3CCCCC3)n2)cc1O` [drawing 229, 4-[4-((3S,5R)-3,5-diamino-piperidin-1-yl)-6-((3R,5R)-3,5-dihydroxy-piperidin-1-yl)-[1,3,5]triazin-2-ylamino]-2-hydroxy-benzoic acidphenyl ester], the “Potency (MIC)” value is reported as “− (− means MIC>64 μg/ml in E. coli or S. aureus)”. `Cc1ccc(C(=O)Nc2ccc(Nc3nc(N4CCCCC4)nc(N4CCCC4)n3)cc2O)cc1.Cl` [drawing 285, NM-{4-[4-((3R,5S)-3,5-Diamino-piperidin-1-yl)-6-((3R,4S)-3,4-diamino-pyrrolidin-1-yl)-[1,3,5]triazin-2-ylamino]-2-hydroxy-phenyl}-4-methyl-benzamide]: the “Potency (MIC)” value is “+ (+ means MIC<64 μg/ml in E. coli or S. aureus)”. The same measure, in the same setting: to `Cl.O=C(Oc1ccccc1)c1ccc(Nc2nc(N3CCCCC3)nc(N3CCCCC3)n2)cc1O` [drawing 569, 4-[4,6-Bis-((3R,5S)-3,5-diamino-piperidin-1-yl)-[1,3,5]triazin-2-ylamino]-2-hydroxy-benzoic acidphenyl ester] belongs “++ (++ means MIC<16 μg/ml in E. coli or S. aureus)”; to “N-(4-acetylamino-3,5-dichloro-phenyl)-4,6-Bis-0((3R,5S)-3,5-diamino-piperidin-1-yl)-[1,3,5]triazine-2-amine”, “− (− means MIC>64 μg/ml in E. coli or S. aureus)”; to “N-(4-phenylazo-phenyl)-4,6-Bis-((3R,5S)-3,5-0diamino-piperidin-1-yl)-[1,3,5]triazine-2-amine”, “++ (++ means MIC<16 μg/ml in E. coli or S. aureus)”.

For “N-(4-thioureido-iminomethyl-phenyl)-4,6-Bis-((3R,5S)-3,5-diamino-piperidin-1-yl)-[1,3,5]triazine-2-amine”, the “Potency (MIC)” value is on record as “+ (+ means MIC<64 μg/ml in E. coli or S. aureus)”. The same measure, in the same setting: the same measure for “N-[4-(cyclohexanecarbonyl-amino)-3-hydroxy-phenyl]-4,6-Bis-((3R,5S)-3,5-0diamino-piperidin-1-yl)-[1,3,5]triazine-2-amine”: “+ (+ means MIC<64 μg/ml in E. coli or S. aureus)”; for “carboxylic acid {4-[4-((2S,4S)-4-amino-2-hydroxymethyl-pyrrolidin-1-yl)-6-((3R,5S)-3,5-diamino-piperidin-1-yl)-[1,3,5]triazine-2-ylamino]-phenyl}-amide”: “++ (++ means MIC<16 μg/ml in E. coli or S. aureus)”.

By MIC is commonly meant the smallest concentration in the dilution series that meets the test's criterion for growth inhibition.
